In US5468756A, “Imidazonaphthyridine derivatives” (Kyowa Hakko Kogyo Co., Ltd., priority 1990, dated 1995):
Counter-ions that a name gives are not always drawn.

How the values were obtained:
ddY strain male mice = test: Acute toxicity (Minimum Lethal Dose); type: in vivo
Experimental: The test compound was orally and intraperitoneally administered to ddY strain male mice weighing 20 to 25 g. MLD (Minimum Lethal Dose) was determined by observing the mortality for […] after the administration.

[1] = test system: passive Schultz-Dale reaction; test: Effect on passive Schultz-Dale reaction (broncho-dilative activity), sensitized tracheal strips contracted by antigen; design: species or system male Hartley guinea pigs; details: guinea pig tracheal zig-zag strips, 37° C., antigen egg white albumin 1 μg/ml; read-out: Passive Schultz-Dale reaction IC50 (concentration of 50% relaxation rate)
Experimental: d) Effect on passive Schultz-Dale reaction (broncho-dilative activity)
Male Hartley guinea pigs weighing 350 to 500 g were passively sensitized by intraperitoneal injection of rabbit anti-OA serum prepared in advance by the method of Koda et al. [Folia Pharmacol., Japon 66, 237, (1970)]. After 24 hours, the guinea pigs were stunned and exsanguinated, and then tracheae were removed. The zig-zag strips of the tracheae were prepared by the method of Emmerson and Mackay [J. Pharm. Pharmacol., 31, 798, (1979)]. The strips were suspended in Krebs-Henseleit solution at 37° C. under aeration of a mixed gas of 95% oxygen and 5% carbon dioxide, and equilibrated for one hour. Then, antigen (egg white albumin) was introduced in the solution (final concentration; 1 μg/ml), and the contraction was measured by isotonictransducer (TD-112s, made by Nihon Kohden K.K., Japan) and recorded on a recorder (Type 3066, made by Yokogawa-Hokushin Denki, K.K. Japan). After the contraction curves reached a plateau, the test compounds were successively added in order to get cumulative concentration-relaxation curves. The concentration of 50% relaxation rate (IC50) was calculated from the regression line, which was obtained from the cumulative concentration-relaxation curves.

[2] = test system: platelet activating factor (PAF)-induced mortality; test: Inhibition effect on platelet activating factor (PAF)-induced mortality; type: in vivo, male dd mice; details: Mus musculus, po, PAF 40 μg/kg i.v., 3 h, n = 10, control group survival 0-20%, read-out: Survival rate of test compound-administered group
Experimental: e) Inhibition effect on platelet activating factor (PAF)-induced mortality
The experiment was carried out by a minor modification of a known method [Br. J. Pharmacol., 79, 595 (1983)]. Groups each consisting of 10 male dd mice (weighing 28 to 32 g) were used, and 50 or 100 mg/kg of the test compound or a saline (control) was orally administered. One hour after the administration of test compound, 40 μg/kg of PAF (manufactured by Avanti Polar Lipids Co., Ltd.) was intravenously administered. Three hours after PAF injection, the mortality of the animals was observed.

[3] = test system: carrageenin-induced paw edema; test: Effect on carrageenin-induced paw edema; type: in vivo, male Wistar rats; details: Rattus norvegicus; p.o., 3 hours after carrageenin; read-out: Suppression rate for paw swelling, carrageenin-induced edema
Experimental: a) Effect on carrageenin-induced paw edema
Male Wistar rats weighing 150 to 160 g (n=3-5) were used in the experiment. After the right hind paw volume was measured with the plethysmograph (TK-101; Unicom Co., Ltd.), the test compound (25, 50 or 100 mg/kg) was orally administered. After one hour, 0.1 ml of 1% carrageenin (λ-carrageenin; PICNIN-A®, Zushi Kagaku Co., Ltd.) was subcutaneously injected into the right hind paw footpad. Three hours after the injection of carrageenin, the right hind paw volume was measured and the swelling rate was determined by the following equation 1. [formula] Vt: the right hind paw volume measured 3 hours after the injection of carrageenin
Vo: the right hind paw volume measured prior to the injection of carrageenin
The suppression rate was calculated by the following equation 2. [formula] Swt: the swelling rate of the group administered with the test compound Swc: the swelling rate of the control group administered with physiological saline solution

Row | Structure (SMILES) | MLD (Minimum Lethal Dose) i.p. (ddY strain male mice) | MLD (Minimum Lethal Dose) p.o. (ddY strain male mice) | IC50 [1] | responders at 100 mg/kg [2] | inhibition in vivo at 100 mg/kg [3]
1 | Cn1cnc2c(=O)n(-c3ccccc3)c3ncccc3c21 [Compound 2, 1-Methyl-5-phenyl-1H-imidazo[4,5-c][1,8]naphthyridin-4(5H)-one] | > 100 mg/kg | > 300 mg/kg |  |  | 
2 | O=c1c2[nH]cnc2c2cccnc2n1-c1ccccc1 [Compound 3, 5-Phenyl-3H-imidazo[4,5-c][1,8]naphthyridin-4(5H)-one] | > 100 mg/kg | > 300 mg/kg | 0.77 µM | 70% | 
3 | Cn1cnc2c3cccnc3n(-c3ccccc3)c(=O)c21 [Compound 4, 3-Methyl-5-phenyl-3H-imidazo[4,5-c][1,8]naphthyridin-4(5H)-one] | > 50 mg/kg | > 50 mg/kg | 0.24 µM |  | 
4 | CCn1cnc2c(=O)n(-c3ccccc3)c3ncccc3c21 [Compound 5, 1-Ethyl-5-phenyl-1H-imidazo[4,5-c][1,8]naphthyridin-4(5H)-one] |  |  | > 10 µM | 80% | 20.6%
5 | CC(C)n1cnc2c(=O)n(-c3ccccc3)c3ncccc3c21 [Compound 6, 1-Isopropyl-5-phenyl-1H-imidazo[4,5-c][1,8]naphthyridin-4(5H)-one] |  |  | > 10 µM | 70% | 22%
6 | O=c1c2ncn(Cc3ccccc3)c2c2cccnc2n1-c1ccccc1 [Compound 7, 1-Benzyl-5-phenyl-1H-imidazo[4,5-c][1,8]naphthyridin-4(5H)-one] |  |  | > 10 µM | 90% | 
7 | O=c1c2[nH]c(-c3ccccc3)nc2c2cccnc2n1-c1ccccc1 [Compound 19, 2,5-Diphenyl-3H-imidazo[4,5-c][1,8]naphthyridin-4(5H)-one] |  |  | > 10 µM | 60% | 1.7%
8 | O=c1c2[nH]c(S)nc2c2cccnc2n1-c1ccccc1 [Compound 20, 2-Mercapto-5-phenyl-3H-imidazo[4,5-c][1,8]naphthyridin-4(5H)-one] |  |  | > 10 µM | 30% | 6.8%
9 | CCOC(=O)Cn1cnc2c3cccnc3n(-c3ccccc3)c(=O)c21 [Compound 32, 3-Ethoxycarbonylmethyl-5-phenyl-3H-imidazo[4,5-c][1,8]naphthyridin-4(5H)-one] | > 100 mg/kg | > 300 mg/kg | 0.68 µM | 0% | 
10 | CCCC(CCC)n1cnc2c3cccnc3n(-c3ccccc3)c(=O)c21 [Compound 35, 3-(1-Propylbutyl)-5-phenyl-3H-imidazo[4,5-c][1,8]naphthyridin-4(5H)-one] | > 100 mg/kg | > 300 mg/kg |  | 70% | 
11 | O=c1c2c(ncn2CC=Cc2ccccc2)c2cccnc2n1-c1ccccc1 [Compound 36, 3-Cinnamyl-5-phenyl-3H-imidazo[4,5-c][1,8]naphthyridin-4(5H)-one] | > 100 mg/kg | > 300 mg/kg |  | 20% | 
12 | O=c1c2c(ncn2C(c2ccccc2)c2ccccc2)c2cccnc2n1-c1ccccc1 [Compound 38, 3-(3-Diphenylmethyl)-5-phenyl-3H-imidazo-[4,5-c][1,8]naphthyridin-4(5H)-one] |  |  |  | 30% | 
13 | Cc1ccc(C)c(Cn2cnc3c4cccnc4n(-c4ccccc4)c(=O)c32)c1 [Compound 39, 3-(2,5-Dimethylphenyl)methyl-5-phenyl-3H-imidazo[4,5-c][1,8]naphthyridin-4(5H)-one] |  |  |  | 0% | 
14 | O=c1c2c(ncn2Cc2ccccc2Cl)c2cccnc2n1-c1ccccc1 [Compound 48, 3-(2-Chlorophenyl)methyl-5-phenyl-3H-imidazo[4,5-c][1,8]naphthyridin-4(5H)-one] |  |  | 4.9 µM | 10% | 
15 | O=c1c2c(ncn2Cc2cccc(Br)c2)c2cccnc2n1-c1ccccc1 [Compound 49, 3-(3-Bromophenyl)methyl-5-phenyl-3H-imidazo[4,5-c][1,8]naphthyridin-4(5H)-one] |  |  |  | 0% | 
16 | COC(=O)c1ccc(Cn2cnc3c4cccnc4n(-c4ccccc4)c(=O)c32)cc1 [Compound 50, 3-(4-Methoxycarbonylphenyl)methyl-5-phenyl-3H-imidazo[4,5-c][1,8]naphthyridin-4(5H)-one] |  |  |  | 0% | 
17 | O=c1c2c(ncn2CCCO)c2cccnc2n1-c1ccccc1 [Compound 51, 3-(3-Hydroxypropyl)-5-phenyl-3H-imidazo[4,5-c][1,8]naphthyridin-4(5H)-one] |  |  |  | 80% | 
18 | CC(O)Cn1cnc2c3cccnc3n(-c3ccccc3)c(=O)c21 (centres unmarked) [Compound 52, 3-(2-Hydroxypropyl)-5-phenyl-3H-imidazo[4,5-c][1,8]naphthyridin-4(5H)-one] |  |  |  | 100% | 
19 | O=c1c2c(ncn2Cc2ccco2)c2cccnc2n1-c1ccccc1 [Compound 53, 3-Furfuryl-5-phenyl-3H-imidazo[4,5-c][1,8]naphthyridin-4(5H)-one] |  |  |  | 90% | 
20 | O=c1c2c(ncn2Cc2cccnc2)c2cccnc2n1-c1ccccc1 [Compound 54, 5-Phenyl-3-(3-pyridyl)methyl-3H-imidazo[4,5-c][1,8]naphthyridin-4(5H)-one] |  |  |  | 90% | 
21 | COc1ccc(-n2c(=O)c3c(ncn3Cc3ccccc3)c3cccnc32)cc1 [Compound 55, 5-(4-Methoxyphenyl)-3-benzyl-3H-imidazo[4,5-c][1,8]naphthyridin-4(5H)-one] |  |  |  | 0% | 
22 | COc1cccc(-n2c(=O)c3c(ncn3Cc3ccccc3)c3cccnc32)c1 [Compound 56, 5-(3-Methoxyphenyl)-3-benzyl-3H-imidazo[4,5-c][1,8]naphthyridin-4(5H)-one] |  |  |  | 40% | 
23 | Cc1ccc(-n2c(=O)c3c(ncn3Cc3ccccc3)c3cccnc32)cc1 [Compound 57, 5-(4-Methylphenyl)-3-benzyl-3H-imidazo[4,5-c][1,8]naphthyridin-4(5H)-one] |  |  |  | 0% | 
24 | Cc1nc2c3cccnc3n(-c3ccccc3)c(=O)c2n1Cc1ccccc1 [Compound 60, 2-Methyl-5-phenyl-3-benzyl-3H-imidazo[4,5-c][1,8]-naphthyridin-4(5H)-one] |  |  |  | 20% | 
25 | O=c1c2c(nc(-c3ccccc3)n2Cc2ccccc2)c2cccnc2n1-c1ccccc1 [Compound 61, 2,5-Diphenyl-3-benzyl-3H-imidazo[4,5-c][1,8]naphthyridin-4(5H)-one] |  |  |  | 10% | 
26 | COc1ccc(-n2c(=O)c3c(ncn3CC(C)C)c3cccnc32)cc1 [Compound 62, 3-Isobutyl-5-(4-methoxyphenyl)-3H-imidazo[4,5-c][1,8]naphthyridin-4(5H)-one] |  |  |  | 90% | 
27 | Cc1ccc(-n2c(=O)c3c(ncn3CC(C)C)c3cccnc32)cc1 [Compound 64, 3-Isobutyl-5-(4-methylphenyl)-3H-imidazo[4,5-c][1,8]naphthyridin-4(5H)-one] |  |  |  | 60% | 
28 | O=c1c2c(ncn2CCCN2CCOCC2)c2cccnc2n1-c1ccccc1 [Compound 66 Sa, 3-(3-Morpholino)propyl-5-phenyl-3H-imidazo[4,5-c][1,8]naphthyridin-4(5H)-one hydrochloride] | > 100 mg/kg | > 300 mg/kg |  | 70% | 
29 | CCN(CC)CCCn1cnc2c3cccnc3n(-c3ccccc3)c(=O)c21 [Compound 67 Sa, 3-(3-Diethylamino)propyl-5-phenyl-3H-imidazo[4,5-c][1,8]naphthyridin-4(5H)-one hydrochloride] | > 100 mg/kg | > 300 mg/kg |  | 30% | 
